For series [1] the following is noted: some species; even in water dispersible forms; cited from earlier work.
The conditions of series [2]: 3% aqueous solution of Tween-80; cited from earlier work.
The nature of series [3]: Melt temperature of VEA/Myvatex Texture Lite blends by differential scanning calorimetry. The series is classed as physicochemical. The following applies: VEA/Myvatex Texture Lite (wt. %); DSC. From the text: This example illustrates the affect of Myvatex Texture Lite food emulsifier on the melt temperature of VEA. The solid blend was formulated as described in Example 2.
Background: DSC measures the heat that a sample takes up or gives off during a temperature scan.

Series [4] is described as follows: Melt temperature of VEA/TPGS blends by differential scanning calorimetry. The series is classed as physicochemical. On the procedure:
In this example, miscibility of the blends was investigated by determining the melt temperature of various blend ratios. […] The mixture was heated and blended to a homogeneous blend and cooled to room temperature. The melting point of each blend was determined by differential scanning calorimetry.

For series [5] the following is noted: rats; aqueous lecithin dispersed, containing medium chain triglycerides; cited from earlier work.
For series [6] the following is noted: zoo animals; remaining excreted unchanged; cited from earlier work.
For series [7] the following is noted: horses; 0, 200, 600, 1800 and 5400 mg daily; cited from earlier work.
For series [8] the following is noted: solubilized in medium-chain triglycerides; cited from earlier work.
For series [9] the following is noted: same patients; tocopherol in vegetable oil; cited from earlier work.
For series [10] the following is noted: human, in vivo, po; cited from earlier work.

Where two headings read alike, the source gives them in different places.

Turning to `CC(=O)Oc1c(C)c(C)c2c(c1C)CCC(C)(CCC[C@H](C)CCC[C@H](C)CCCC(C)C)O2` (mixture of isomers) [VEA, d- or dl-alpha-tocopheryl acetate], in series [1], the bioavailability result was “not bioavailable”. The “absorption rate relative to vegetable oil solution of VEA” value in series [2] is recorded as “twice the rate”. The “Melt Temperature” value in [3] was determined as 2.9 °C; in series [4] (VEA/TPGS (wt. %), DSC), 2.9 °C. The “TPGS required to solidify VEA” value in [4] (at room temperature) is 25%. In addition, the absorption of tocopherol result in [5] is given as “enhanced absorption”.

In the case of `CC(=O)Oc1c(C)c(C)c2c(c1C)CCC(C)(CCCC(C)CCCC(C)CCCC(C)C)O2` (racemic) [dl-alpha-tocopheryl acetate], in series [6], the administered tocopherol absorbed entry is reported as “one-half”. Further, the “serum tocopherol levels with increasing dosage” value in series [7] is given as “increased almost linearly”.

For the compound `Cc1c(C)c2c(c(C)c1O)CCC(C)(CCCC(C)CCCC(C)CCCC(C)C)O2` (stereo not drawn) [tocopherol, alpha-tocopherol], the bioavailability result in series [1] is on record as “not bioavailable”. Further, the absorption of tocopherol entry in [8] was “enhanced absorption”. Also, in [9], the “increase of tocopherol in the blood” value is recorded as “no significant increase”.

In the case of Vitamin A, the absorption result in series [10] was “enhanced absorption”.

For Vitamin E, the absorption entry in series [10] is on record as “enhanced absorption”.

The record behind these values is patent US5179122A, “Nutritional supplement containing Vitamin E” (priority 1991, dated 1993).
